# Data as given in US20230047961A1, “THE CHOLESTEROL-SYNTESIS INTERMEDIATES FOR TREATMENT DEMYELINATING DISORDERS” (priority 2019, published 2023).
# Entries after “also recorded” stand apart in the source; their conditions may differ.
# Columns and labels:
# [1] = system: lysolecithin induced lesions; assay: Remyelination in lysolecithin induced spinal cord lesions; assay type: in vivo, mouse; settings: 14 days post lesion
# Procedure: Focal spinal cord demyelinating lesions were induced under MMF anesthesia (1.0 mg kg^−1 midazolam, 0.05 mg kg^−1 medetomidine and 0.02 mg kg^−1 fentanyl) by stereotactic injection of 1 μl lysolecithin (1%, from egg yolk, alpha-lysophosphatidyl-choline, Sigma) into the left and right ventro-lateral funiculus at Th10 of 8-week old animals. The injection was performed at a rate of ˜1 μl min^−1. This procedure created fusiform demyelinating lesions, 5-6 mm in length. At the day of injection, mice were randomly assigned to normal or 0.5% [v/w] squalene supplemented chow for 14 days, after which the animals were killed, and the spinal cord processed for histology. For serum isolation, blood was collected by cardiac puncture, and serum was prepared after 4 h clotting by centrifugation.
# Mice were perfused with 4% paraformaldehyde (PFA). Spinal cord tissue was postfixed overnight, embedded in paraffin and cut into […] sections (HMP 110, MICROM). For immunohistological analyses, sections were deparaffinized followed by antigen-retrieval in sodium citrate buffer (0.01 M, pH 6.0). For immunofluorescence, sections were blocked with serum free protein block (Dako). Primary antibodies were diluted in 2% bovine serum albumin (BSA)/PBS and incubated for 48 h followed by fluorophor coupled secondary antibodies. Lesion area (DAPI clustered nuclei), oligodendrocyte cell number (CAll, carbonic anhydrase 2) and myelin positive area (MBP, myelin basic protein) were evaluated.
# [2] = system: inflammatory cells in brain and spinal cord tissue; assay: Flow cytometry of inflammatory cells in brain and spinal cord of Plp1-tg mice; assay type: in vivo, mouse; settings: 0.5% [v/w] squalene diet between 2 and 12 weeks of age (FIG. 14b)
# Procedure: (§1) Single-cell suspensions from spinal cords were obtained via mechanical dissociation on a cell strainer. Immune cells were separated over a two-phase Percoll-density gradient (70%/30%). Blood was collected by cardiac puncture in EDTA (80 mM) and single-cell suspension was obtained by centrifugation over lymphocyte separation medium (LSM 1077, PAA). Staining of abTCR/CD4 T cells, abTCR/CD8 T cells and CD45/CD11 b cells (macrophages/microglia) was performed using the following antibodies in a 1:200 dilution:Anti-CD3e (clone 145-2C11), BioLegend; anti-CD4 (clone GK 1.5), BD; anti-CD8 (clone 53-6.7), BD; […]; anti-CD11b (clone M1/70), BioLegend; anti-CD45.2 (clone 104), BioLegend. The addition of Calibrite APC beads (BD) allowed for cell quantification. Flow cytometry was performed using a FACSCalibur operated by Cell Quest software (Becton Dickinson).
# (§2) Plp1 transgenic Plp1-tg, line #72 mice (Readhead et al., 1994, Stumpf, Berghoff et al., 2019) harbor three copies of the murine Plp1 gene. Dietary treatment was applied between 2 and 12 weeks of age.
# (§3) Dietary supplementation with squalene (0.5% [v/w]).
# Plp1-tg mice = assay: Elevated beam test in Plp1-tg mice (Pelizaeus-Merzbacher disease model); assay type: in vivo, mouse; settings: 0.5% [v/w] squalene diet between 2 and 12 weeks of age (FIG. 14a)
# From the text: as §2, §3
# To assess bilateral sensorimotor coordination that involves connecting white matter structures, elevated beam test (in-house made, MPI of experimental medicine) was applied. Mice were trained to run toward a hiding box on a beam (width 1.5 cm) one week before testing. In one testing session number of slips in a defined 55 cm distance over three repeats was counted. Mean number of slips after three testing sessions (8 weeks, 10 weeks and 12 weeks) was quantified.
# [3] = system: peripheral inflammatory cells; assay: Flow cytometry of peripheral inflammatory cells per ml blood in EAE; assay type: in vivo, mouse; settings: peak of EAE disease (day 16), therapeutic squalene vs normal chow (FIG. 3a-c)
# Procedure: as §1
# [4] = system: spinal cord tissue gene expression; assay: RT-qPCR expression profile in spinal cord lysates of EAE mice; assay type: in vivo, mouse; settings: remission phase
# Procedure: (§4) For tissue expression analyses, spinal cord tissue was dissected from ˜Th10-˜L5. RNA was isolated using QIAshredder and RNeasy protocols (Qiagen). Concentration and quality of RNA was evaluated using a NanoDrop spectrophotometer and RNA Nano (Agilent). cDNA was synthesized with Superscript III (Invitrogen) and quantitative PCRs were done in triplicates with the GoTaq qPCR Master Mix (Promega) on a 7500 Fast Real-Time PCR System (Applied Biosystems). Expression values were normalized to the mean of three—five housekeeping genes, HPRT (Hypoxanthin-Phosphoribosyl-Transferase 1) and Rplp0 (60S acidic ribosomal protein P), Rps13 (Ribosomal Protein S13), Gapdh (Glyceraldehyde-3-Phosphate Dehydrogenase), 18S (18S ribosomal RNA) and quantification was done by applying the ΔΔCt method, normalized to age matched untreated controls (set to 1). All primers were intron-spanning.
# myelinating co-cultures = assay: Myelinating co-culture in vitro (MBP area normalized to SM131 axons); assay type: cell-based; settings: 100 μM squalene
# Procedure: Myelinating co-cultures were established as described (Thomson, C. E. et al. 2008) with minor modifications. Briefly, E13 embryonic spinal cords were digested in 0.125% Trypsin solution in HBSS (without Ca^+2 and Mg^+2) at 37° C. for 20 min. After stopping the digestion with 1 ml plating media (DMEM, 25% horse serum, 25% HBSS, […] DNAse) the tissue was homogenized by gentle trituration and centrifuged for 5 min. 150,000 cells were plated per poly-L-lysine coated coverslip; 3 coverslips per 35 mm Petri dish. After cell attachment in plating media, differentiation media was added (low glucose DMEM, […] insulin, 10 ng ml^−1 biotin, 50 nM hydrocortisone, 0.5% N1-mix). N1 mix was 1 mg ml^−1 apo-transferrin, 20 mM putrescine, […] progesterone, and 6 mM sodium selenite. 50% media change was performed every 24-48 h with differentiation media. Squalene (100 μM) was added at day 3 to cultures. After 12 days, insulin was removed from differentiation media. […] Axonal (SM131) area and the area with myelin sheaths (MBP) of seven randomly chosen visual fields of myelinating co-cultures (×20 magnification) was measured by automated threshold with Fiji Software (SM131 Otsu, MBP Triangle). Specimens were analyzed on an Axiophot observer.Z1 (Zeiss) equipped with an AxioCam MRm and the ZEN 2012 blue edition software and evaluated with Image J software.
# [5] = system: inflammatory cells in spinal cord tissue; assay: Flow cytometry of inflammatory cells per gram spinal cord in EAE; assay type: in vivo, mouse; settings: peak of EAE disease (day 16), therapeutic squalene vs normal chow (FIG. 2)
# [6] = system: MOG35-55 induced EAE animals; assay: Clinical score of MOG35-55 induced EAE animals; assay type: in vivo, mouse
# Procedure: For MOG-EAE, mice purchased from Charles River were immunized subcutaneously with […] myelin oligodendrocyte glycoprotein peptide 35-55 (MOG35-55) in complete Freund's adjuvant (M. tuberculosis at 3.75 mg ml^−1) and i.p. injected twice with 500 ng pertussis toxin. Animals were examined daily and scored for clinical signs of the disease. […] The clinical score was: 0 normal; 0.5 loss of tail tip tone; 1 loss of tail tone; 1.5 ataxia, mild walking deficits (slip off the grid); 2 mild hind limb weakness, severe gait ataxia, twist of the tail causes rotation of the whole body; 2.5 moderate hind limb weakness, cannot grip the grid with hind paw, but able to stay on a upright tilted grid; 3 mild paraparesis, falls down from a upright tiled grid; 3.5 paraparesis of hind limbs (legs strongly affected, but move clearly); 4 paralysis of hind limbs, weakness in forelimbs; 4.5 forelimbs paralyzed; 5 moribund/dead. […] DMHCA (Avanti) was dissolved in corn oil (Sigma) and given therapeutically in chow at a dosage of 8 mg kg^−1. IFNβ1b (Bayer) was administrated by daily intraperitoneal (i.p.) injections 30.000 U per animal.
# [7] = system: CD11b+ myeloid cells (microglia/macrophages); assay: RT-qPCR expression profile in MACS isolated CD11b+ myeloid cells of EAE mice; assay type: in vivo, mouse
# From the text: Microglia/Macrophages were isolated according to the adult brain dissociation protocol (Miltenyi biotec). Spinal cord was isolated on ice followed by removal of meninges. Antibody labeling steps were done according to the respective antibody Microbead kit protocol (Miltenyi biotec), oligodendrocytes (04, 130-096-670) and microglia (CD11 b, 130-093-636).
# as §4
# [8] = prophylactic squalene vs chow fed controls (FIG. 4a)
# [9] = prophylactic squalene vs chow fed controls (FIG. 4b)
# [10] = acute phase (15 days post immunization), prophylactic squalene vs chow (FIG. 5a)
compound,measurement,setting,value
"CC(C)=CCCC(C)=CCC/C(C)=C/CC/C=C(\C)CC/C=C(\C)CCC=C(C)C (stereo in doubt) [squalene, (6E,10E,14E,18E)-2,6,10,15,19,23-hexamethyltetracosa-2,6,10,14,18,22-hexaene]",Number of CAII positive mature oligodendrocytes within lesion area,[1]; 0.5% [v/w] squalene chow from day of lesion induction vs control (FIG. 6b),strongly increased
same,Degree of MBP positive myelinated axons within lesion area,[1]; 0.5% [v/w] squalene chow from day of lesion induction vs control (FIG. 6f),strongly increased
same,Size of the lesion area (DAPI positive increased nuclear density),[1]; 0.5% [v/w] squalene chow vs control (FIG. 6c),comparable
same,Number of inflammatory cells per gram brain,[2],reduced number of inflammatory cells
same,Number of inflammatory cells per gram spinal cord,[2],reduced number of inflammatory cells
same,Clinical disease severity by elevated beam testing (number of slips),Plp1-tg mice,high potential to ameliorate clinical disease severity
same,"Number of peripheral immune cells (abTCR/CD4+, abTCR/CD8+, CD45+/CD11b+) per ml blood",[3],did not observe differences
same,"Expression of cholesterol export genes (Abca1, Abcg1, Abcg4, Apoe, Clu)",[4]; [8],significantly increased expression
same,"Expression of cholesterol synthesis genes (Hmgc1, Hmgcr, Fdft1, Dhcr24, Cyp51a1, Mvk)",[4]; [8],significantly increased expression
same,"Expression of cholesterol uptake genes (Ldlr, Vldlr, Apobr, Lrp1, Lrp2)",[4]; [8],significantly increased expression
same,"Expression of genes related to myelination and oligodendrocyte differentiation (Plp1, Car2, Olig2, Pdgfra, Cspg4)",[4]; [8],significantly increased expression
same,Expression of pro-inflammatory mediator genes,[4]; [9],reduced expression
same,Gene expression of the anti-inflammatory molecules 1110 and Tgfb1,[4]; [9],significantly increased
same,MBP positive area normalized to SM131 positive axons,myelinating co-cultures; 21 DIV (FIG. 7),increased MBP positive area
same,MBP positive area normalized to SM131 positive axons,myelinating co-cultures; 30 DIV (FIG. 7),increased MBP positive area
same,Number of CD11b+/CD45+ myeloid cells per gram spinal cord,[5],reduced numbers
same,Number of inflammatory CD4+ T cells per gram spinal cord,[5],reduced numbers
same,Number of inflammatory CD8+ T cells per gram spinal cord,[5],reduced numbers
same,Mean clinical score (EAE disease severity),"[6]; prophylactic regimen, 0.5% [v/w] squalene chow from 14 days before immunization (FIG. 1a, 1c)",ameliorate disease severity; also recorded: more effective prophylactic effect than the treatment of multiple sclerosis with interferon beta-1b
same,Mean clinical score (EAE disease severity),"[6]; therapeutic regimen, 0.5% [v/w] squalene chow from day of disease onset (FIG. 1b)",ameliorate disease severity
same,Mean clinical score (EAE disease severity),"[6]; therapeutic regimen, squalene 0.03% [v/w] (FIG. 10a, 10b)",Disease amelioration was already present
same,"Mean clinical score (EAE disease severity), dose comparison","[6]; therapeutic regimen, squalene 0.03% [v/w], 0.5% [v/w] and 5% [v/w] (FIG. 10a)",dose depend
same,Expression levels of pro-inflammatory mediator genes such as TNF and IL1β,[7]; [10],reduced expression levels
same,Expression of anti-inflammatory molecules such as TGFβ1,[7]; [10],increased expression
same,Expression of cholesterol export genes Abca1 and Apoe,"[7]; acute phase, prophylactic squalene vs untreated control (FIG. 5b)",upregulated
